The compounds below were run against wild-type human cardiac sodium channel, hNav1.5 (Homo sapiens, UniProt Q14524) (assay: Late INa screening assay (automated whole cell patch clamp, PatchXpress)). Details: compound at 1 μM; HEK293 cells expressing hNav1.5; late INa generated with 10 μM Tefluthrin (or 50 nM ATX II); read-out: LateINa_1 uM (percent block of late INa).
Chain of wild-type human cardiac sodium channel, hNav1.5 (Q14524 whole entry): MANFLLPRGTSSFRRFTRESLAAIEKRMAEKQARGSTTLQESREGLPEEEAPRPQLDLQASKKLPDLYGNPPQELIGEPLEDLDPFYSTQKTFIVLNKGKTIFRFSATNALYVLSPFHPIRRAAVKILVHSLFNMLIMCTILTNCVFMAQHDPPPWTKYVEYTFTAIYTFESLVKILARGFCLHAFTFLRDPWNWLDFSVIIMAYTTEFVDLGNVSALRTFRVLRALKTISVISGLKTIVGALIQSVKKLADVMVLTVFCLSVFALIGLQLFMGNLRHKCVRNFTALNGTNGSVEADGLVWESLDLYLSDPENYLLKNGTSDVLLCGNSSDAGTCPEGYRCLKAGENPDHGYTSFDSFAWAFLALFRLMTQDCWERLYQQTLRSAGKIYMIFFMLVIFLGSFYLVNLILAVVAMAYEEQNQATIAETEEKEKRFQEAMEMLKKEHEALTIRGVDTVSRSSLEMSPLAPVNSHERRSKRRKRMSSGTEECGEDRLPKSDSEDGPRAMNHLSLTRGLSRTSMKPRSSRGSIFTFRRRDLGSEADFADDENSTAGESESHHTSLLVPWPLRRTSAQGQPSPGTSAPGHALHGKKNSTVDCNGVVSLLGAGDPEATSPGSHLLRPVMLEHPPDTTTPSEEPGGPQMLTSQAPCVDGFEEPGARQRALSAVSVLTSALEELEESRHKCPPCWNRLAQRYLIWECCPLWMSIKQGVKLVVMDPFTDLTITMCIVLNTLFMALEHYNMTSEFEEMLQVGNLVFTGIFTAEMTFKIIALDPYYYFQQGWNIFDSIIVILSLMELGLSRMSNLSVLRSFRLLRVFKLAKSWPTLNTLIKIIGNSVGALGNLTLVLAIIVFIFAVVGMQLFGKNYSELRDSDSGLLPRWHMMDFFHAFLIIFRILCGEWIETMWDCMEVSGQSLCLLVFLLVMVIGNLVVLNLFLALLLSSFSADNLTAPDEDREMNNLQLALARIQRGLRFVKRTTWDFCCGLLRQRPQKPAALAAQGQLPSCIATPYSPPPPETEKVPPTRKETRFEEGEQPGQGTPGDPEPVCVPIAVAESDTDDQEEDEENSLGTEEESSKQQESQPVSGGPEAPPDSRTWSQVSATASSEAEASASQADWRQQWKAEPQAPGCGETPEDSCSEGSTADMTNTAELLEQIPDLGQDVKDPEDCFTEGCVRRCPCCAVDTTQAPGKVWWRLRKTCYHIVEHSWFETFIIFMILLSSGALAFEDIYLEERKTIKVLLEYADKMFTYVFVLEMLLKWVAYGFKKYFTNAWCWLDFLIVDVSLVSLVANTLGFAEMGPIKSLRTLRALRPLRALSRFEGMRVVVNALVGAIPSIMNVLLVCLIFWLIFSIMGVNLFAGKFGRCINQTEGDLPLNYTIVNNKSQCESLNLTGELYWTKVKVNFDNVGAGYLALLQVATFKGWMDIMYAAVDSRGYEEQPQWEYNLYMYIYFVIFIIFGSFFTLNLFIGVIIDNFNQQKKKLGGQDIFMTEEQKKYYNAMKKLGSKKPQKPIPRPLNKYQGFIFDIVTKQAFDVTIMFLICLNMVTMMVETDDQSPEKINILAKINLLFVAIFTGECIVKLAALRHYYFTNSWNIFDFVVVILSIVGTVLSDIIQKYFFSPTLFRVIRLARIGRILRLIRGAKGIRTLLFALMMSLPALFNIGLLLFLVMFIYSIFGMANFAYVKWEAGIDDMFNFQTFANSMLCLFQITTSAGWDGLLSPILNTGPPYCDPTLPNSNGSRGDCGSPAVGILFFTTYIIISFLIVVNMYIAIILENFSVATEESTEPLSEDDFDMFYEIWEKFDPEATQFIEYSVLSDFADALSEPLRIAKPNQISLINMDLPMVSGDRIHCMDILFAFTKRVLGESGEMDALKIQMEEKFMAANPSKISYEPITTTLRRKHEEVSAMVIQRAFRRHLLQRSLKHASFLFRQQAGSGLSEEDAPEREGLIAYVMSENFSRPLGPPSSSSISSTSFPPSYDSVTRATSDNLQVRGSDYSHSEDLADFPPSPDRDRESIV
Type: cell-based
Procedure, shortened: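 Late sodium current through wild-type human hNav1.5 stably expressed in HEK293 cells (no beta subunits) was recorded by automated whole-cell patch clamp on a PatchXpress 7000A at 24-27° C. Late INa was induced with 10 μM Tefluthrin or 50 nM ATX II. Cells were stepped from −120 mV to −20 mV for 250 ms at 0.1 Hz, and percent block was normalized to current in Na-free extracellular solution.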
For CCOC(=O)COCC(F)(F)c1nnc2ccc(-c3ccc(OC(F)(F)F)cc3)cn12 [BHN-167, ethyl (2,2-difluoro-2-{6-[4-(trifluoromethoxy)phenyl][1,2,4]triazolo[4,3-a]pyridin-3-yl}ethoxy)acetate], the inhibition at 1 µM was 45.8%. FC(F)(F)c1nnc2ccc(-c3ccc(OC(F)(F)c4cccnc4)cc3)cn12 [BHN-271, 6-{4-[difluoro(pyridin-3-yl)methoxy]phenyl}-3-(trifluoromethyl)[1,2,4]triazolo[4,3-a]pyridine] was tested, and the inhibition at 1 µM was 19.9%. CCOC(=O)c1ccc(-c2nnc3ccc(-c4ccc(OC(F)(F)F)cc4)cn23)cc1 [BHN-86, ethyl 4-{6-[4-(trifluoromethoxy)phenyl][1,2,4]triazolo[4,3-a]pyridin-3-yl}benzoate] showed an inhibition at 1 µM of 82.7%. For FC(F)(F)Oc1ccc(-c2ccc3nnc(C(F)(F)OCc4ccccn4)n3c2)cc1 [BHN-211, 3-[difluoro(pyridin-2-ylmethoxy)methyl]-6-[4-(trifluoromethoxy)phenyl][1,2,4]triazolo[4,3-a]pyridine], the inhibition at 1 µM was 57.4%. Compound Cc1cc(COC(F)(F)c2nnc3ccc(-c4ccc(OC(F)(F)F)cc4)cn23)nn1-c1ccc(Cl)cc1 [BHN-302, 3-[{[1-(4-chlorophenyl)-5-methyl-1H-pyrazol-3-yl]methoxy}(difluoro)methyl]-6-[4-(trifluoromethoxy)phenyl][1,2,4]triazolo[4,3-a]pyridine] has an inhibition at 1 µM of 52.8%. With FC(F)(F)Oc1ccc(-c2ccc3nnc(C(F)(F)F)n3c2)cc1C(F)(F)F [BHN-189, 6-[4-(trifluoromethoxy)-3-(trifluoromethyl)phenyl]-3-(trifluoromethyl)[1,2,4]triazolo[4,3-a]pyridine] the inhibition at 1 µM was 56.9%. Fc1ccc(Oc2ccc(-c3ccc4nnc(C(F)(F)F)n4c3)cc2)cc1 [BHN-64, 6-[4-(4-fluorophenoxy)phenyl]-3-(trifluoromethyl)[1,2,4]triazolo[4,3-a]pyridine] gave an inhibition at 1 µM of 38.2%. FC(F)(F)c1ccc(C#Cc2ccc3nnc(Oc4ccccc4)n3c2)cc1 [BHN-304, 3-phenoxy-6-{[4-(trifluoromethyl)phenyl]ethynyl}[1,2,4]triazolo[4,3-a]pyridine] showed an inhibition at 1 µM of 28.2%. FC(F)(F)COc1ccc(-c2ccc3nnc(C(F)(F)OCc4cc(-c5ccccc5)on4)n3c2)cn1 [BHN-324, 3-{difluoro[(5-phenyl-1,2-oxazol-3-yl)methoxy]methyl}-6-[6-(2,2,2-trifluoroethoxy)pyridin-3-yl][1,2,4]triazolo[4,3-a]pyridine] gave an inhibition at 1 µM of 46.3%. In the case of FC1(F)CCN(c2nnc3ccc(-c4ccc(OC(F)(F)F)cc4)cn23)CC1 [BHN-260, 3-(4,4-difluoropiperidin-1-yl)-6-[4-(trifluoromethoxy)phenyl][1,2,4]triazolo[4,3-a]pyridine], the inhibition at 1 µM is reported as 38.5%. FC(F)(F)Oc1ccc(-c2ccc3nnc(C(F)(F)OCCC(c4ccccc4)c4ccccc4)n3c2)cc1 [BHN-303, 3-[(3,3-diphenylpropoxy)(difluoro)methyl]-6-[4-(trifluoromethoxy)phenyl][1,2,4]triazolo[4,3-a]pyridine] showed an inhibition at 1 µM of 51%. Compound COCCOC(F)(F)c1nnc2ccc(-c3ccc(OC(F)(F)F)cc3)cn12 [BHN-141, 3-[difluoro(2-methoxyethoxy)methyl]-6-[4-(trifluoromethoxy)phenyl][1,2,4]triazolo[4,3-a]pyridine] has an inhibition at 1 µM of 32.5%. FC(F)(F)Oc1ccc(-c2ccc3nnc(C(F)(F)OCc4ccc5nccnc5c4)n3c2)cc1 [BHN-291, 6-[(difluoro{6-[4-(trifluoromethoxy)phenyl][1,2,4]triazolo[4,3-a]pyridin-3-yl}methoxy)methyl]quinoxaline] gave an inhibition at 1 µM of 47%. Work on CC(O)C(F)(F)c1nnc2ccc(-c3ccc(OC(F)(F)F)cc3)cn12 (stereo not drawn) [BHN-165, 1,1-difluoro-1-{6-[4-(trifluoromethoxy)phenyl][1,2,4]triazolo[4,3-a]pyridin-3-yl}propan-2-ol] yielded an inhibition at 1 µM of 28.1%. In the case of CC1(C)Cc2cccc(COC(F)(F)c3nnc4ccc(-c5ccc(OC(F)(F)F)cc5)cn34)c2O1 [BHN-321, 3-{[(2,2-dimethyl-2,3-dihydro-1-benzofuran-7-yl)methoxy](difluoro)methyl}-6-[4-(trifluoromethoxy)phenyl][1,2,4]triazolo[4,3-a]pyridine], the inhibition at 1 µM is reported as 65.6%. CC(C)Oc1cc(OC(F)(F)F)ccc1-c1ccc2nnc(C(F)(F)F)n2c1 [BHN-223, 6-[2-(propan-2-yloxy)-4-(trifluoromethoxy)phenyl]-3-(trifluoromethyl)[1,2,4]triazolo[4,3-a]pyridine] gave an inhibition at 1 µM of 54.5%. Work on FC(F)(F)Oc1ccc(-c2ccc3nnc(C(F)(F)OCc4ccnc5ccccc45)n3c2)cc1 [BHN-212, 4-[(difluoro{6-[4-(trifluoromethoxy)phenyl][1,2,4]triazolo[4,3-a]pyridin-3-yl}methoxy)methyl]quinoline] yielded an inhibition at 1 µM of 59.6%. In the case of FC(F)(F)Cc1nnc2ccc(-c3ccc(Oc4ccccc4)cc3)nn12 [BHN-31, 6-(4-phenoxyphenyl)-3-(2,2,2-trifluoroethyl)[1,2,4]triazolo[4,3-b]pyridazine], the inhibition at 1 µM is reported as 57.5%. Compound OC(COCC(F)(F)c1nnc2ccc(-c3ccc(OC(F)(F)F)cc3)cn12)COc1ccccc1Cl (stereo not drawn) [BHN-267, 1-(2-chlorophenoxy)-3-(2,2-difluoro-2-{6-[4-(trifluoromethoxy)phenyl][1,2,4]triazolo[4,3-a]pyridin-3-yl}ethoxy)propan-2-ol] has an inhibition at 1 µM of 26.5%. With FC(F)(F)COc1ccc(-c2ccc3nnc(C(F)(F)F)n3c2)nn1 [BHN-187, 6-[6-(2,2,2-trifluoroethoxy)pyridazin-3-yl]-3-(trifluoromethyl)[1,2,4]triazolo[4,3-a]pyridine] the inhibition at 1 µM was 15.2%. CC1(COC(F)(F)c2nnc3ccc(-c4ccc(OC(F)(F)F)cc4)cn23)COC1 [BHN-142, 3-{difluoro[(3-methyloxetan-3-yl)methoxy]methyl}-6-[4-(trifluoromethoxy)phenyl][1,2,4]triazolo[4,3-a]pyridine] showed an inhibition at 1 µM of 38.8%. In the case of FC(F)c1nnc2ccc(-c3ccc(OCC(F)(F)F)nc3)nn12 [BHN-237, 3-(difluoromethyl)-6-[6-(2,2,2-trifluoroethoxy)pyridin-3-yl][1,2,4]triazolo[4,3-b]pyridazine], the inhibition at 1 µM is reported as 44.7%.

Same assay, conditions: compound at 10 μM; HEK293 cells expressing hNav1.5; late INa generated with 10 μM Tefluthrin (or 50 nM ATX II); read-out: LateINa_10 uM (percent block of late INa)
In the case of CCOC(=O)c1ccc(-c2nnc3ccc(-c4ccc(OC(F)(F)F)cc4)cn23)cc1 [BHN-86, ethyl 4-{6-[4-(trifluoromethoxy)phenyl][1,2,4]triazolo[4,3-a]pyridin-3-yl}benzoate], the inhibition at 10 µM is reported as 86.9%. For Fc1ccc(Oc2ccc(-c3ccc4nnc(C(F)(F)F)n4c3)cc2)cc1 [BHN-64, 6-[4-(4-fluorophenoxy)phenyl]-3-(trifluoromethyl)[1,2,4]triazolo[4,3-a]pyridine], the inhibition at 10 µM was 69.6%. Compound FC(F)(F)c1nnc2ccc(-c3ccc(Oc4cnccn4)cc3)cn12 [BHN-94, 6-[4-(pyrazin-2-yloxy)phenyl]-3-(trifluoromethyl)[1,2,4]triazolo[4,3-a]pyridine] has an inhibition at 10 µM of 27.5%. CC(C)(O)c1nnc2ccc(-c3ccc(Oc4ccccc4)cc3)nn12 [BHN-60, 2-[6-(4-phenoxyphenyl)[1,2,4]triazolo[4,3-b]pyridazin-3-yl]propan-2-ol] was tested, and the inhibition at 10 µM was 48.6%. N#Cc1ccc(-c2nnc3ccc(-c4ccc(OC(F)(F)F)cc4)nn23)cc1 [BHN-42, 4-{6-[4-(trifluoromethoxy)phenyl][1,2,4]triazolo[4,3-b]pyridazin-3-yl}benzonitrile] showed an inhibition at 10 µM of 43.8%. Compound FC(F)(F)Oc1ccc(-c2ccc3nncn3n2)cc1 [BHN-25, 6-[4-(trifluoromethoxy)phenyl][1,2,4]triazolo[4,3-b]pyridazine] has an inhibition at 10 µM of 39%. With FC(F)(F)Cc1nnc2ccc(-c3ccc(Oc4ccccc4)cc3)nn12 [BHN-31, 6-(4-phenoxyphenyl)-3-(2,2,2-trifluoroethyl)[1,2,4]triazolo[4,3-b]pyridazine] the inhibition at 10 µM was 82.6%. For FC(F)(F)c1ncc2ccc(-c3ccc(Oc4ccccc4)cc3)cn12 [BHN-7, 6-(4-phenoxyphenyl)-3-(trifluoromethyl)imidazo[1,5-a]pyridine], the inhibition at 10 µM was 55.4%.
